The values that follow come from US7807663B2, “Therapeutic agents for diabetes” (Ajinomoto Co., Inc., priority 2003, dated 2010).

The test has as its system adipose cells of rats. Briefly: Evaluation of the sugar transportation activity (2-[14C(U)]-deoxy-D-glucose incorporation). The format is cell-based, Wistar rats. As to conditions: concentration with reinforcing effect of 50% of that of insulin (100 nM) = 100%; rat adipose cells, 30 min pre-culture at 37° C., 5 min uptake. As to the method: 1. Preparation of Adipose Cells of Rats:
After the decapitation and venesection of 6 male Wistar rats (body weight: 150 to 200 g), an incision was made in the abdomen of each rat to extract 6 g in total of epididymal adipose tissues. The tissues were finely cut into 2 mm×2 mm pieces in 6 ml of KRH (Krebs-Ringer Hepes, composition: 130 mM of sodium chloride, 4.7 mM of potassium chloride, 1.2 mM of potassium dihydrogenphosphate, 1.2 mM of magnesium sulfate, 1 mM of calcium chloride and 25 mM of Hepes, pH=7.6) containing 5% of BSA (bovine serum albumin). 24 mg of collagenase (type I) was added thereto and the digestion treatment was conducted for about 40 minutes to obtain about 6 ml of isolated adipose cells. The collagenase was removed by the buffer exchange. 2% BSA/KRH solution was added to the residue for the re-suspension to obtain 45 ml of an adipose cell suspension.
2. Evaluation of the Sugar Transportation Activity:
The sugar transportation activity of the compound (I) of the present invention was evaluated with reference to a method described in a literature [Annual Review of Biochemistry, Vol. 55, p. 1059 (1986)]. In the test, 200 μL of the adipose cell suspension was poured in each polystyrene test tube, 100 μL of the solution of the test substance (by dilution of 10 mg/mL dimethyl sulfoxide solution with KRH) was added thereto, and the obtained mixture was shaken and then cultured at 37° C. for 30 minutes. The sugar transportation activity was evaluated by measuring the quantity of 2-[^14C(U)]-deoxy-D-glucose incorporated per a unit time. Namely, 2-[^14C(U)]-deoxy-D-glucose was added to the adipose cell suspension after the pre-culture (the final concentration: 0.5 μCi/sample). 5 minutes after, cytochalasin B (final concentration: 10 μM) was added to the mixture to terminate the sugar transportation. After forming a dinonyl phthalate layer, the obtained mixture was centrifuged to separate the adipose cells from the buffer. The quantity of 2-[^14C(U)]-deoxy-D-glucose contained in the adipose cell layer was determined with a liquid scintillation counter to determine the quantity of the incorporated sugar. In this evaluation system, when insulin (100 nM) having the effect of reinforcing the sugar transportation was used, the effect was about 7 times as high as that obtained in the insulin-free control group.
The results of the evaluation of the sugar transportation activity obtained by using 100 μg/mL of the compound (I) of the present invention are shown in Table 3. The sugar transportation activity in Table 3 was evaluated on the basis of the reinforcing effect of insulin (100 nM). The sugar transportation activity A in Table 3 was determined in terms of the concentration (EC50: μg/mL) of a test compound, having a reinforcing effect corresponding to 50% on the basis of the reinforcing effect of insulin (100 nM) having a reinforcing effect of 100%.
The symbols in Table 3 are as follows: • No: Compound No. in Tables 1 and 2, and • A: sugar transportation activity.

For `COc1ccccc1[C@@H]1C2=C(CNC2=O)N[C@@H]2CCCC[C@H]2N1C(C)=O` [Compound 1], the “A: sugar transportation activity (EC50)” value came to 1.3 µg/mL.

Consider `CCC(=O)N1[C@@H]2CCCC[C@H]2NC2=C(C(=O)NC2)[C@H]1c1ccccc1OC` [Compound 2], for which the “A: sugar transportation activity (EC50)” value was determined as 0.77 µg/mL.

As to `CCCC(=O)N1[C@@H]2CCCC[C@H]2NC2=C(C(=O)NC2)[C@H]1c1ccccc1OC` [Compound 3], the “A: sugar transportation activity (EC50)” value was 4.6 µg/mL. Regarding `COc1ccccc1[C@@H]1C2=C(CNC2=O)N[C@@H]2CCCC[C@H]2N1C(=O)C1CC1` [Compound 4], the “A: sugar transportation activity (EC50)” value was determined as 0.5 µg/mL. To `COc1ccccc1[C@@H]1C2=C(CNC2=O)N[C@@H]2CCCC[C@H]2N1C(=O)C(F)(F)F` [Compound 5] belongs 4.5 µg/mL; to `COc1ccccc1[C@@H]1C2=C(CNC2=O)N[C@@H]2CCCC[C@H]2N1C(=O)C(F)(F)C(F)(F)F` [Compound 7], 9.5 µg/mL.

`COc1ccccc1[C@@H]1C2=C(CNC2=O)N[C@@H]2CCCC[C@H]2N1C(=O)COC(C)=O` [Compound 9]: the “A: sugar transportation activity (EC50)” value was 5.9 µg/mL. For `COCC(=O)N1[C@@H]2CCCC[C@H]2NC2=C(C(=O)NC2)[C@H]1c1ccccc1OC` [Compound 10] the value was 2 µg/mL.

On to `CCOCC(=O)N1[C@@H]2CCCC[C@H]2NC2=C(C(=O)NC2)[C@H]1c1ccccc1OC` [Compound 11], for which the “A: sugar transportation activity (EC50)” value is 2.2 µg/mL. For `COc1ccccc1[C@@H]1C2=C(CNC2=O)N[C@@H]2CCCC[C@H]2N1C(=O)COc1ccccc1` [Compound 12] the value was 4.6 µg/mL; for `COc1ccccc1[C@@H]1C2=C(CNC2=O)N[C@@H]2CCCC[C@H]2N1C(=O)Cc1ccccc1` [Compound 13], 5 µg/mL. For the compound `CC=CC(=O)N1[C@@H]2CCCC[C@H]2NC2=C(C(=O)NC2)[C@H]1c1ccccc1OC` [Compound 16], the “A: sugar transportation activity (EC50)” value was found to be 1.1 µg/mL. For `COC(=O)CCC(=O)N1[C@@H]2CCCC[C@H]2NC2=C(C(=O)NC2)[C@H]1c1ccccc1OC` [Compound 17] the value was 4.8 µg/mL. For `COc1ccccc1[C@@H]1C2=C(CNC2=O)N[C@@H]2CCCC[C@H]2N1C(=O)CCCO` [Compound 19] the value was 4.8 µg/mL. Turning to `COc1ccccc1[C@@H]1C2=C(CNC2=O)N[C@@H]2CCCC[C@H]2N1C(=O)CCNC(=O)OCc1ccccc1` [Compound 22], the “A: sugar transportation activity (EC50)” value stood at 8 µg/mL. For the compound `COc1ccccc1[C@@H]1C2=C(CNC2=O)N[C@@H]2CCCC[C@H]2N1C(=O)CCN` [Compound 23], the “A: sugar transportation activity (EC50)” value turned out to be 8 µg/mL. For the compound `COCCC(=O)N1[C@@H]2CCCC[C@H]2NC2=C(C(=O)NC2)[C@H]1c1ccccc1OC` [Compound 24], the “A: sugar transportation activity (EC50)” value amounted to 3.4 µg/mL. For `COc1ccccc1[C@@H]1C2=C(CNC2=O)N[C@@H]2CCCC[C@H]2N1C(=O)CCc1ccccc1` [Compound 25] the value was 0.9 µg/mL; for `COc1ccccc1CCC(=O)N1[C@@H]2CCCC[C@H]2NC2=C(C(=O)NC2)[C@H]1c1ccccc1OC` [Compound 26], 4 µg/mL.

On to `COc1ccccc1[C@@H]1C2=C(CNC2=O)N[C@@H]2CCCC[C@H]2N1C(=O)CCc1ccc(F)c(F)c1` [Compound 27], for which the “A: sugar transportation activity (EC50)” value is 4.2 µg/mL. To `COc1ccccc1[C@@H]1C2=C(CNC2=O)N[C@@H]2CCCC[C@H]2N1C(=O)CCSC` [Compound 28] belongs 2.6 µg/mL; to `COc1ccccc1[C@@H]1C2=C(CNC2=O)N[C@@H]2CCCC[C@H]2N1C(=O)CC(C)=O` [Compound 29], 5.5 µg/mL.

For the compound `COc1ccccc1[C@@H]1C2=C(CNC2=O)N[C@@H]2CCCC[C@H]2N1C(=O)c1ccccn1` [Compound 33], the “A: sugar transportation activity (EC50)” value turned out to be 10 µg/mL.
